The results in this text go back to patent US20130123287A1, “CONTROL AGENT FOR SOFT ROT AND CONTROL METHOD FOR THE SAME” (ISHIHARA SANGYO KAISHA, LTD., priority 2010, published 2013).

Structures are written as SMILES.

The subject of experiment [1] is soft rot of Chinese cabbage. Nature of the experiment: Test for controlling soft rot of Chinese cabbage, Example 2 / Comparative Example 2 (field, cultivar Harebutai 65). The experiment is classed as in vivo. The note with it: 150 L/10 a sprayed onto planting holes before planting, 64 days after start. An excerpt: Frequency of the disease=[sigma(number of plants with the onset of the disease at each severity level*index of the onset of the disease)/(plants examined*4)]*100
Disease control value=[1-(frequency of the disease in the treated lot/frequency of the disease in the non-treated lot)]*100
• 0: No onset • 1: Onset in some of outer leaves (shippable) • 2: Onset in outer leaves and some of head leaves (by removing damaged parts, the resulting cabbage can be shipped as small cabbage but is ranked as grade B). • 3: Most of head leaves are inflicted with the onset of the disease or with severer damages (not shippable) • 4: Whole cabbage plant is inflicted with the onset of the disease and is dead.
200 g/l Azoxystrobin (Amistar 20 FLOWABLE [trade name], manufactured by Syngenta Japan K.K.) was adjusted to 500 g ai/10a (0.5 g/m^2, 2500 ml Product/10a) as the amount of the active ingredient and to 150 L/10a as the volume of diluent water.
30% w/w triflumizol (TRIFUMIN WP [trade name], manufactured by Nippon Soda Co., Ltd.) was adjusted to 500 g ai/10a (0.5 g/m^2, 1667 g Product/10a) as the amount of the active ingredient and to 150 L/10a as the volume of diluent water.
100 g/1 cyazofamid (RANMAN PLOWABLE [trade name], manufactured by Ishihara Sangyo Kaisha, Ltd.) was adjusted to 500 g ai/10a (0.5 g/m^2, 5000 ml Product/10a) as the amount of the active ingredient and to 150 L/10a as the volume of diluent water.
50% w/w penthiopyrad (GAIA WG [trade name], manufactured by Mitsui Chemicals Agro, Inc.) was adjusted to 500 g ai/10a (0.5 g/m^2, 1000 g Product/10a) as the amount of the active ingredient and to 150 L/10a as the volume of diluent water.
50 g/l flusulfamide (SCABLOCK SC [trade name], manufactured by Mitsui Chemicals Agro, Inc.) was adjusted to 500 g ai/10a (0.5 g/m^2, 10000 ml Product/10a) as the amount of the active ingredient and to 150 L/10a as the volume of diluent water.
400 g/1 chlorothalonil (Daconil 1000 [the trade name], manufactured by Sumitomo Chemical, Limited) was adjusted to 1000 g ai/10a (1.0 g/m^2, 2500 ml Product/10a) as the amount of the active ingredient and to 150 L/10a as the volume of diluent water.
After spreading an agricultural mulch-sheet and opening planting holes (diameter of about 5 cm) for permanent planting through the mulch-sheet, the spray solutions prepared as described above were sprayed onto the planting holes such that the amount of treated active ingredient of chlorothalonil was 1.0 g/m^2 (150 L per 10a) and the amount of each of the remaining spray solutions was 0.5 g/m^2 (150 L per 10a), followed by air-drying; subsequently, seedlings of Chinese cabbage (cultivar Harebutai 65) grown for 4 weeks in cell mold trays (128 holes/nursery box) were planted such that 19 seedlings were planted in each test lot having an area of 2.4 m^2 with two replications.
(§1) Preparation was performed by diluting streptomycin (Mycin 20 wettable powder solution [under the trade name] manufactured by Hokko Chemical Industry Co., Ltd.) with water to 1/1000.
In a field spread with the agricultural mulch-sheet, Chinese cabbage seedlings (cultivar: Harebutai 65) grown by the same method as in Example 2 were planted by the same method as in Example 2, for spraying the spray solution of streptomycin prepared above in (1) (at each spray volume of 300 L/10a) twice (27 days and 48 days after the planting of the seedlings) on the stems and leaves with a sprayer.
64 days after the start of the tests, all the plants in each lot were examined about the severity level of the disease to assess the frequency of the disease and the disease control value. In the same manner as described above, the frequency of the disease and the disease control value were determined. Additionally, soft rot is a disease with damages hardly controlled, so even a chemical at the level C determined by the tests of the effects can practically be used.

In experiment [2] the test system is bacteria causing the soft rot (Erwinia carotovora). As to the kind of experiment: Inhibition test of growth of bacteria causing soft rot, Reference Test Example 2. The experiment is classed as cell-based. The note with it: for formed colonies (growth state), grade: PSA medium, 27 degrees Celsius, 2 days; for inhibition of growth of Erwinia carotovora (in words): active ingredient concentration of 1,000 ppm. An excerpt:
(§2) Inhibition test of growth of bacteria causing soft rot of potato An inhibition test of the growth of bacteria causing the soft rot was done, when a control agent was directly applied to the bacteria causing the soft rot. A given volume of each pesticide of azoxystrobin (Amistar-20 FLOWABLE [trade name], manufactured by Syngenta Japan K.K.), penthiopyrad (GAIA WG [trade name], manufactured by Mitsui Chemicals Agro, Inc.), flusulfamide (SCABLOCK SC [trade name] manufactured by Mitsui Chemicals Agro, Inc.), and streptomycin (Mycin Wettable powder [trade name] manufactured by Hokko Chemical Industry Co., Ltd.) was added together with a suspension of the bacteria causing the soft rot (Erwinia carotovora) to a preliminarily dissolved PSA culture medium (55 degrees Celsius) for subsequent thorough agitation, which was then spread on a plate for culturing at 27 degrees Celsius for 2 days, to examine the growth state. Subsequently, the formed colonies were examined according to the following three grades. • +: at the same level as the level of non-treated lot.
(§3) Plus or minus: apparently less than the colonies of the non-treated lot. • −: almost no colonies observed.

In experiment [3] the test system is soft rot of Chinese cabbage. Nature of the experiment: Test for controlling soft rot of Chinese cabbage, Example 1 / Comparative Example 1 (field, cultivar Muso). It is filed as in vivo. As to conditions: 250 g ai/10 a, 150 L/10 a sprayed onto planting holes before planting, 54 days after start. On the procedure: 200 g/l Azoxystrobin (Amistar 20 FLOWABLE [trade name], manufactured by Syngenta Japan K.K.) was adjusted to 250 g ai/10a (0.25 g/m^2, 1250 ml Product/10a) as the amount of the active ingredient and to 150 L/10a as the volume of diluent water.
100 g/l Cyazofamid (RANMAN FLOWABLE [trade name], manufactured by Ishihara Sangyo Kaisha, Ltd.) was adjusted to 250 g ai/10a (0.25 g/m^2, 2500 ml Product/10a) as the amount of the active ingredient and to 150 L/10a as the volume of diluent water.
177 g/l Amisulbrom (LEIMAY FLOWABLE [trade name], manufactured by Nissan Chemical Industries, Ltd.) was adjusted individually to 250 g ai/10a (0.25 g/m^2, 1412 ml Product/10a) as the amount of the active ingredient and to 150 L/10a as the volume of diluent water.
After spreading an agricultural mulch-sheet and opening planting holes (diameter of about 9 cm) for permanent planting through the mulch-sheet, the spray solutions prepared as described above were sprayed onto the planting holes such that the amount of treated active ingredient of each spray solution was 0.25 g/m^2 (150 L per 10a), followed by air-drying; subsequently, seedlings of Chinese cabbage (cultivar: Muso) grown for 4 weeks in cell mold trays (128 holes/nursery box) were planted such that 30 seedlings were planted in each test lot having an area of 6 m^2 with two replications.
as §1
In a field spread with the agricultural mulch-sheet, Chinese cabbage seedlings (cultivar: Muso) grown by the same method as in Example 1 were planted by the same method as in Example 1, for spraying the spray solution of streptomycin prepared above in (1) (at each spray volume of 300 L/10a) three times (13 days, 20 days and 27 days after the planting of the seedlings) on the stems and leaves.
54 days after the start of the tests, all the plants in each lot were examined about the severity level of the disease; according to the following equations, the ratio of the plants with the onset of the disease, the frequency of the disease, and the disease control value were calculated to determine and rank the effects at A to D levels. Because soft rot is a disease with damages hardly controlled, herein, even a chemical at the level C determined by the tests of the effects can practically be used.
Ratio of the plants with the onset of the disease=(Number of plants with the onset of the disease/number of plants examined)*100
Frequency of the disease=[sigma(number of plants with the onset of the disease at each severity level*index of the onset of the disease)/(plants examined*4)]*100 […]

Experiment [4] relates to bacteria causing the soft rot (Erwinia carotovora). Nature of the experiment: Inhibition test of growth of bacteria causing soft rot, Reference Test Example 1. The experiment is classed as cell-based. As to conditions: for formed colonies (growth state), grade: PSA medium, 25 degrees Celsius, 4 days. On the procedure:
as §2, with “An” for “Inhibition test of growth of bacteria causing soft rot of potato An”, “cyazofamid (RANMAN 400SC [trade name] manufactured by Ishihara Sangyo Kaisha, Ltd.), amisulbrom (LEIMAY” for “azoxystrobin (Amistar-20”, “Nissan Chemical Industries, Ltd.)” for “Syngenta Japan K.K.), penthiopyrad (GAIA WG [trade name], manufactured by Mitsui Chemicals Agro, Inc.), flusulfamide (SCABLOCK SC [trade name] manufactured by Mitsui Chemicals Agro, Inc.),”, “25” for “27”, “4” for “2”
as §3

The test system is the same in experiment [5]. As to the kind of experiment: Inhibition test of growth of bacteria causing soft rot, Reference Test Example 3. As to conditions: for formed colonies (growth state), grade: PSA medium, 27 degrees Celsius, 2 days; for inhibition of growth of Erwinia carotovora (in words): active ingredient concentration of 1,000 ppm. The experiment is classed as cell-based.
Text: as §2, with “triflumizol (TRIFUMIN WP [trade name] manufactured by Nippon Soda Co., Ltd.), chlorothalonil (Daconil 1000” for “azoxystrobin (Amistar-20 FLOWABLE”, “Sumitomo Chemical Company, Limited)” for “Syngenta Japan K.K.), penthiopyrad (GAIA WG [trade name], manufactured by Mitsui Chemicals Agro, Inc.), flusulfamide (SCABLOCK SC [trade name] manufactured by Mitsui Chemicals Agro, Inc.),”, “lot. Plus or minus: apparently less than the colonies of the non-treated lot. • −: almost no colonies observed.” for “lot.”

For the compound `CC(C)CC(C)c1sccc1NC(=O)c1cn(C)nc1C(F)(F)F` (racemic) [Penthiopyrad, (RS)-N-[2-(1,3-dimethylbutyl)-3-thienyl]-1-methyl-3-(trifluoromethyl)-1H-pyrazole-4-carboxamide], in experiment [1] (500 g ai/10 a), the Determination of effect result is recorded as “C (C: Effective at low level (21 to 40 disease control value))”. Further, the “formed colonies (growth state), grade” value in experiment [2] (100 ppm active ingredient) is “+, +”; in experiment [2] (500 ppm active ingredient), “+, +”; in experiment [2] (1000 ppm active ingredient) it was “+, +”. Besides, the “inhibition of growth of Erwinia carotovora (in words)” value (“inhibition” for short) in experiment [2] is “never inhibited the growth”.
`Cc1c(Br)c2ccc(F)cc2n1S(=O)(=O)c1ncn(S(=O)(=O)N(C)C)n1` [Amisulbrom, 3-[(3-bromo-6-fluoro-2-methyl-1H-indol-1-yl)sulfonyl]-N,N-dimethyl-1H-1,2,4-triazole-1-sulfoneamide]: in experiment [3], the Determination of effect result is “C (C: Effective at low level (21 to 40 disease control value))”. In addition, the “formed colonies (growth state), grade” value is “+, +” in experiment [4] (100 ppm active ingredient); “+, +” in experiment [4] (500 ppm active ingredient); “+, +” in experiment [4] (1000 ppm active ingredient). In addition, the “inhibition” value in experiment [4] (active ingredient concentration of 1,000 ppm) was “never inhibited the growth”.
Consider `N#Cc1c(Cl)c(Cl)c(Cl)c(C#N)c1Cl` [Chlorothalonil, 2,4,5,6-tetrachloro-1,3-benzene dicarbonitrile], for which the Determination of effect result in experiment [1] (1000 g ai/10 a) is on record as “B (B: Effective (41 to 60 disease control value))”. Also, the “formed colonies (growth state), grade” value was “+, +” in experiment [5] (100 ppm active ingredient); “+, +” in experiment [5] (500 ppm active ingredient); “+, +” in experiment [5] (1000 ppm active ingredient). Further, the “inhibition” value in experiment [5] was “never inhibited the growth”.
In the case of `O=[N+]([O-])c1ccc(NS(=O)(=O)c2ccc(Cl)c(C(F)(F)F)c2)c(Cl)c1` [Flusulfamide, 2′, 4-dichloro-alpha,alpha,alpha-trifluoro-4′-nitro-m-toluenesulfone anilide], the Determination of effect entry in experiment [1] (500 g ai/10 a) was “B (B: Effective (41 to 60 disease control value))”. Also, the “formed colonies (growth state), grade” value in experiment [2] (100 ppm active ingredient) is on record as “+, +”; in experiment [2] (500 ppm active ingredient) it was “+, +”; in experiment [2] (1000 ppm active ingredient) it was “+, +”. Also, the “inhibition” value in experiment [2] was “never inhibited the growth”.
Regarding `CCCOC/C(=N\c1ccc(Cl)cc1C(F)(F)F)n1ccnc1` [Triflumizol, (E)-4-chloro-alpha,alpha,alpha-trifluoro-N-[1-imidazol-1-yl-2-propoxyethylidene]-o-to luidine], the Determination of effect result in experiment [1] (500 g ai/10 a) is recorded as “C (C: Effective at low level (21 to 40 disease control value))”. Also, the “formed colonies (growth state), grade” value in experiment [5] (100 ppm active ingredient) is on record as “+, +”; in experiment [5] (500 ppm active ingredient), “+, +”; in experiment [5] (1000 ppm active ingredient), “+, +”. Moreover, in experiment [5], the “inhibition” value was “never inhibited the growth”.
